ChEMBL document CHEMBL4020813, “The ProTide Prodrug Technology: From the Concept to the Clinic” (J Med Chem, 2018)

Key:
[1] = Half life in po dosed human; assay type: ADME, organism-based; conditions: in vivo
[2] = Tmax in po dosed human; assay type: ADME, organism-based; conditions: in vivo
[3] = system: Human immunodeficiency virus 1; test: Antiviral activity against HIV1 infected in human JM1 cells; assay type: functional, cell-based; conditions: Human immunodeficiency virus 1, JM1
JM1 = test: Cytotoxicity against human JM1 cells; assay type: cell-based
[4] = Cytotoxicity against human HeLa after 4 to 5 days by Cell-Titer Glo viability assay; assay type: cell-based; conditions: HeLa cells
Ebolavirus [5] = test: Antiviral activity against Ebolavirus H. sapiens-tc/COD/1995/Kikwit infected in rhesus monkey assessed as host survival at 3 mg/kg, iv administered as bolus dose; assay type: functional; conditions: Orthoebolavirus, in Macaca mulatta
Ebolavirus [6] = test: Antiviral activity against Ebolavirus H. sapiens-tc/COD/1995/Kikwit infected in rhesus monkey assessed as host survival at 10 mg/kg, iv administered as bolus dose; assay type: functional; conditions: Orthoebolavirus, in Macaca mulatta
[7] = Cytotoxicity against human primary macrophages after 4 to 5 days by Cell-Titer Glo viability assay; assay type: cell-based, Macrophage
Ebolavirus [8] = test: Antiviral activity against Ebolavirus infected in human HeLa cells after 48 hrs by immuno-staining assay; assay type: functional, cell-based; conditions: Orthoebolavirus
Ebolavirus [9] = test: Antiviral activity against Ebolavirus infected in human HuH7 cells after 3 days by end point dilution assay; assay type: functional, cell-based; conditions: Orthoebolavirus, Huh-7, 72 h
[10] = Half life in human primary macrophages assessed as nucleoside triphosphate level at 10 uM; assay type: ADME, cell-based; conditions: macrophage
[11] = Cytotoxicity against human HuH7 after 4 to 5 days by Cell-Titer Glo viability assay; assay type: cell-based, Huh-7; conditions: HuH7 cells
Ebolavirus [12] = test: Antiviral activity against Ebolavirus infected in human primary macrophages after 48 hrs by immuno-staining assay; assay type: functional; conditions: Orthoebolavirus
[13] = Half life in rhesus monkey plasma at 10 mg/kg, iv administered as bolus dose by LC-MS/MS analysis; assay type: ADME, organism-based, Macaca mulatta
HT-29 = test: Antitumor activity against human HT-29 cells xenografted in nude mouse assessed as tumor growth inhibition relative to control; assay type: functional
Homo sapiens [14] = species on record: Homo sapiens; test: Cmax in human assessed as dFdCTP level; assay type: ADME
Homo sapiens [15] = species on record: Homo sapiens; test: Reduction in tumor growth in patient with solid malignancies; assay type: functional
[16] = Half life in human; assay type: ADME
[17] = Drug recovery in human urine at 100 to 800 mg; assay type: ADME; conditions: read-out: Drug recovery
[18] = Renal clearance in human at 100 to 800 mg; assay type: ADME
[19] = Fraction absorbed in po dosed portal vein cannulated dog; assay type: ADME, organism-based, Canis lupus familiaris; conditions: in vivo, read-out: Fabs
Plasma = test: Protein binding in plasma of patient with end stage renal disease; assay type: ADME, cell-free; conditions: human
[20] = Protein binding in human plasma; assay type: ADME, cell-free; conditions: read-out: PPB (converted)
[21] = Oral bioavailability in portal vein cannulated dog; assay type: ADME, organism-based, Canis lupus familiaris; conditions: in vivo
[22] = Fraction absorbed in human; assay type: ADME; conditions: read-out: Fabs
[23] = Plasma concentration in dog at 5 mg/kg at 0.14 hrs post dose
in vivo [24] = conditions: dog, po, 2 mg/kg
[25] = Half life in human MT2 cells by HPLC analysis
in vivo [26] = conditions: dog, po, 20 mg/kg
[27] = Plasma concentration in dog at 5 mg/kg at 1 hr post dose
[28] = Half life in beagle dog hepatic S9 fraction
[29] = Half life in beagle dog intestine

Work on `C[C@]1(F)[C@H](O)[C@@H](CO)O[C@H]1n1ccc(=O)[nH]c1=O` yielded a half-life [1] of 28.8 to 45 min and a Tmax [2] of 120 to 240 min.

`COC(=O)[C@H](C)NP(=O)(OC[C@H]1O[C@@H](n2cc(C)c(=O)[nH]c2=O)C[C@@H]1N=[N+]=[N-])Oc1ccc(OC)cc1` (stereo partly specified) gave an EC50 [3] of 0.8 µM and an IC50 (JM1) of 100 µM.

Molecule `CCC(CC)COC(=O)[C@H](C)N[P@](=O)(OC[C@H]1O[C@@](C#N)(c2ccc3c(N)ncnn23)[C@H](O)[C@@H]1O)Oc1ccccc1` has a CC50 [4] of over 20 µM, a survival at 3 mg/kg (Ebolavirus [5]) of 50% and a survival at 10 mg/kg (Ebolavirus [6]) of 100%. It also gave a CC50 [7] of over 20 µM, an EC50 (Ebolavirus [8]) of 0.14 µM and an EC50 (Ebolavirus [9]) of 0.07 µM. It also gave a t1/2 [10] of 960 min, a CC50 [11] of over 20 µM and an EC50 (Ebolavirus [12]) of 0.086 µM. It also gave a half-life [13] of 23.4 min.

In the case of `O=c1[nH]cc(F)c(=O)[nH]1` [FLUOROURACIL], the TGI (HT-29) is reported as 25%.

`C[C@H](NP(=O)(OC[C@H]1O[C@@H](n2ccc(N)nc2=O)C(F)(F)[C@@H]1O)Oc1ccccc1)C(=O)OCc1ccccc1` (stereo partly specified) [FOSGEMCITABINE PALABENAMIDE] showed a Cmax (Homo sapiens [14]) of 475 µM, a TGI (Homo sapiens [15]) of over 30% and a half-life [16] of 498 min.

`C[C@H](NP(=O)(OC[C@H]1O[C@@H](n2cc(F)c(=O)[nH]c2=O)C[C@@H]1O)Oc1cccc2ccccc12)C(=O)OCc1ccccc1` (stereo partly specified) [FOSIFLOXURIDINE NAFALBENAMIDE] gave a TGI (HT-29) of 47%.

In the case of `N#C[C@@]1(c2ccc3c(N)ncnn23)O[C@H](CO)[C@@H](O)[C@H]1O` [GS-441524], the CC50 [4] is reported as over 20 µM, the CC50 [7] is reported as over 20 µM and the EC50 (Ebolavirus [8]) is reported as over 20 µM. It also gave an EC50 (Ebolavirus [9]) of 1.5 µM, a CC50 [11] of over 20 µM and an EC50 (Ebolavirus [12]) of over 20 µM.

`CC(C)OC(=O)[C@H](C)N[P@](=O)(OC[C@H]1O[C@@H](n2ccc(=O)[nH]c2=O)[C@](C)(F)[C@@H]1O)Oc1ccccc1` [SOFOSBUVIR] showed a dose excreted [17] of 3.5%, a CL renal [18] of 238 mL/min and a Fa [19] of 36%. It also gave a PPB (Plasma) of 85%, a fraction unbound [20] of 0.18 and a Tmax [2] of 30 to 120 min. For the same molecule, the bioavailability [21] was 9.9% and the Fa [22] was over 80%.

Molecule `CC(C)OC(=O)[C@H](C)N[P@](=O)(CO[C@H](C)Cn1cnc2c(N)ncnc21)Oc1ccccc1` [TENOFOVIR ALAFENAMIDE] has a concentration at […] [23] of 1.58 µM, a bioavailability (in vivo [24]) of 1.7% and a half-life [25] of 28.3 min. For the same molecule, the bioavailability (in vivo [26]) was 24.7%, the concentration at 1 h [27] was 18 µM and the half-life [16] was 92 min. It also gave a half-life [28] of 31 min and a half-life [29] of 31 min.
